Results reported in the supplement of paper PMC11061612.

Assays:
Assay in all cases: combination Emax (second highest fraction inhibited in the dose matrix, 72 h); higher = more inhibition; extreme values may be limits of the assay
[1] = system: BV-173 (Chronic Myelogenous Leukemia)
Procedure, shortened: (§1)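 Cell lines grown in DMEM/F12 or RPMI with 10% FBS were plated in 1536-well plates and held 24 hours at 37°C, 5% CO2 before 72 hours of exposure to two-drug dose matrices, with DMSO typically at 0.2%. CellTiter-Glo 2.0 luminescence gave viability, which was converted to inhibition. Vehicle wells were set to 0 and blank wells to 1. Combination Emax is the second-highest inhibition in the matrix, and Bliss excess is the observed combination effect minus the expected EA + EB − EA·EB, where EA and EB are the single-agent effects.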

[2] = system: EMC-BAC-2 (Non-Small Cell Lung Carcinoma)
Procedure, shortened: as §1

[3] = system: VMRC-LCD (Lung Adenocarcinoma)
Procedure, shortened: as §1

[4] = system: KYSE-150 (Esophageal Squamous Cell Carcinoma)
Procedure, shortened: as §1

EW-3 (Ewing's Sarcoma) = system: EW-3 (Ewing's Sarcoma)
Procedure, shortened: as §1

[5] = system: HSC-2 (Oral Cavity Carcinoma)
Procedure, shortened: as §1

[6] = system: NCI-H322M (Lung Adenocarcinoma)
Procedure, shortened: as §1

[7] = system: HC-1 (Other Blood Carcinomas)
Procedure, shortened: as §1

[8] = system: ASH-3 (Thyroid Gland Carcinoma)
Procedure, shortened: as §1

[9] = system: PF-382 (T-Lymphoblastic Leukemia)
Procedure, shortened: as §1

[10] = system: JHH-7 (Hepatocellular Carcinoma)
Procedure, shortened: as §1

[11] = system: NCI-H1573 (Lung Adenocarcinoma)
Procedure, shortened: as §1

[12] = system: NCI-H2405 (Lung Adenocarcinoma)
Procedure, shortened: as §1

[13] = system: SNU-C1 (Colorectal Carcinoma)
Procedure, shortened: as §1

BT-20 (Breast Carcinoma) = system: BT-20 (Breast Carcinoma)
Procedure, shortened: as §1

NB7 (Neuroblastoma) = system: NB7 (Neuroblastoma)
Procedure, shortened: as §1

[14] = system: PFSK-1 (Other Solid Carcinomas)
Procedure, shortened: as §1

EW-18 (Ewing's Sarcoma) = system: EW-18 (Ewing's Sarcoma)
Procedure, shortened: as §1

[15] = system: DG-75 (Burkitt's Lymphoma)
Procedure, shortened: as §1

A704 (Kidney Carcinoma) = system: A704 (Kidney Carcinoma)
Procedure, shortened: as §1

| Compound | combination Emax [1] | combination Emax [2] | combination Emax [3] | combination Emax [4] | combination Emax (EW-3 (Ewing's Sarcoma)) | combination Emax [5] | combination Emax [6] | combination Emax [7] | combination Emax [8] | combination Emax [9] | combination Emax [10] | combination Emax [11] | combination Emax [12] | combination Emax [13] | combination Emax (BT-20 (Breast Carcinoma)) | combination Emax (NB7 (Neuroblastoma)) | combination Emax [14] | combination Emax (EW-18 (Ewing's Sarcoma)) | combination Emax [15] | combination Emax (A704 (Kidney Carcinoma)) |
| --- | --- | --- | --- | --- | --- | --- | --- | --- | --- | --- | --- | --- | --- | --- | --- | --- | --- | --- | --- | --- |
| CN(CCO)CC[C@H](CSc1ccccc1)Nc1ccc(S(=O)(=O)NC(=O)c2ccc(N3CCC([C@@H](O)c4ccccc4-c4ccc(Cl)cc4)CC3)cc2)cc1S(=O)(=O)C(F)(F)F [AZD4320] + CCN(CCO)CCCOc1ccc2c(Nc3cc(CC(=O)Nc4cccc(F)c4)[nH]n3)ncnc2c1 [AZD2811] (first compound max 1 µM, 7x7, partner max 1 µM) | 0.965 | 0.417 | 0.582 | 0.301 | 0.949 | 0.827 | 0.0611 | 0.969 | 0.619 | 1 | 0.538 | 0.27 | 0.137 | 0.531 | 0.653 | 0.267 | 0.319 | 0.888 | 0.196 | 0.563 |
| Cn1cnc2c(F)c(Nc3ccc(Br)cc3Cl)c(C(=O)NOCCO)cc21 [Selumetinib] + C[C@@H]1COCCN1C2=NC(=NC(=C2)C3(CC3)[S@](=N)(=O)C)C4=C5C=CNC5=NC=C4 [AZD6738] (first compound max 10 µM, 7x7, partner max 10 µM) | 0.947 | 0.557 | 0.732 | 0.622 | 0.822 | 0.569 | 0.88 | 0.793 | 0.607 | 0.912 | 0.311 | 0.663 | 0.401 | 0.641 | 0.576 | 0.597 | 0.595 | 0.696 | 0.807 | 0.391 |
| Cn1cnc2c(F)c(Nc3ccc(Br)cc3Cl)c(C(=O)NOCCO)cc21 [Selumetinib] + CC(C)n1c(=O)n(C)c2cnc3cc(F)c(-c4ccc(OCCCN5CCCCC5)nc4)cc3c21 [AZD1390] (first compound max 10 µM, 7x7, partner max 0.3 µM) | 0.621 | 0.278 | 0.15 | 0.259 | 0.104 | 0.248 | 0.527 | 0.456 | 0.304 | 0.211 | 0.262 | 0.264 | 0.364 | 0.635 | 0.252 | 0.0793 | 0.244 | 0.28 | 0.277 | 0.246 |
| Cc1nc(Nc2ncc(C(=O)Nc3c(C)cccc3Cl)s2)cc(N2CCN(CCO)CC2)n1 [Dasatinib] + CC(=O)Nc1cccc(-n2c(=O)n(C3CC3)c(=O)c3c(Nc4ccc(I)cc4F)n(C)c(=O)c(C)c32)c1 [Trametinib] (first compound max 2 µM, 7x7, partner max 1 µM) | 0.819 | 0.779 | 0.163 | 0.743 | 0.0371 | 0.804 | 0.721 | 0.494 | 0.855 | 0.991 | 0.306 | 0.707 | 0.712 | 0.578 | 0.68 | 0.65 | 0.338 | 0.13 | 0.316 | 1 |
| CC(=O)c1c(C)c2cnc(Nc3ccc(N4CCNCC4)cn3)nc2n(C2CCCC2)c1=O [Palbociclib] + Cc1c2c(nn1C)CSCc1cc(n(C)n1)CSc1cc(c3ccccc3c1)OCCCc1c(C(=O)O)n(C)c3c-2c(Cl)ccc13 [AZD5991] (first compound max 10 µM, 7x7, partner max 1 µM) | 0.88 | 0.643 | 0.337 | 0.585 | 0.772 | 0.696 | 0.501 | 0.654 | 0.398 | 0.633 | 0.203 | 0.434 | 0.269 | 0.142 | 0.916 | 0.576 | 0.969 | 0.899 | 0.717 | 0.595 |
| CC1(C)CCC(CN2CCN(c3ccc(C(=O)NS(=O)(=O)c4ccc(NCC5CCOCC5)c([N+](=O)[O-])c4)c(Oc4cnc5[nH]ccc5c4)c3)CC2)=C(c2ccc(Cl)cc2)C1 [Venetoclax] + CCN(CCO)CCCOc1ccc2c(Nc3cc(CC(=O)Nc4cccc(F)c4)[nH]n3)ncnc2c1 [AZD2811] (first compound max 1 µM, 7x7, partner max 1 µM) | 0.958 | 0.343 | 0.626 | 0.308 | 0.779 | 0.327 | 0.188 | 0.712 | 0.318 | 0.905 | 0.184 | 0.215 | 0.167 | 0.266 | 0.294 | 0.259 | 0.304 | 0.707 | 0.204 | 0.167 |
| Cn1cnc2c(F)c(Nc3ccc(Br)cc3Cl)c(C(=O)NOCCO)cc21 [Selumetinib] + CCN(CCO)CCCOc1ccc2c(Nc3cc(CC(=O)Nc4cccc(F)c4)[nH]n3)ncnc2c1 [AZD2811] (first compound max 10 µM, 7x7, partner max 1 µM) | 0.952 | 0.398 | 0.585 | 0.492 | 0.444 | 0.376 | 0.602 | 0.702 | 0.391 | 0.911 | 0.25 | 0.412 | 0.408 | 0.723 | 0.474 | 0.415 | 0.313 | 0.7 | 0.265 | 0.178 |
| Cc1c2c(nn1C)CSCc1cc(n(C)n1)CSc1cc(c3ccccc3c1)OCCCc1c(C(=O)O)n(C)c3c-2c(Cl)ccc13 [AZD5991] + Cc1cc2ncnn2cc1Nc1ncc2c(n1)n(C1CCOCC1)c(=O)n2C [AZD7648] (first compound max 1 µM, 7x7, partner max 10 µM) | 0.946 | 0.678 | 0.215 | 0.57 | 0.727 | 0.844 | 0.459 | 0.456 | 0.358 | 0.353 | 0.164 | 0.673 | 0.204 | 0.412 | 0.694 | 0.546 | 1 | 0.936 | 0.362 | 0.259 |
| NC1(C(=O)N[C@@H](CCO)c2ccc(Cl)cc2)CCN(c2ncnc3[nH]ccc23)CC1 [Capivasertib] + COc1nnc2ccc(N3CCC(c4ccc(OCCN5CCN(C)C(=O)[C@H]5C)cc4)CC3)nn12 [AZD5153] (first compound max 10 µM, 7x7, partner max 1 µM) | 0.905 | 0.769 | 0.454 | 0.796 | 0.837 | 0.874 | 0.615 | 0.664 | 0.831 | 1 | 0.311 | 0.562 | 0.481 | 0.813 | 0.813 | 0.762 | 0.581 | 0.787 | 0.884 | 0.645 |
| NC1(C(=O)N[C@@H](CCO)c2ccc(Cl)cc2)CCN(c2ncnc3[nH]ccc23)CC1 [Capivasertib] + CC(=O)c1c(C)c2cnc(Nc3ccc(N4CCNCC4)cn3)nc2n(C2CCCC2)c1=O [Palbociclib] (first compound max 10 µM, 7x7, partner max 10 µM) | 0.87 | 0.663 | 0.127 | 0.644 | 0.414 | 0.582 | 0.639 | 0.632 | 0.581 | 0.743 | 0.302 | 0.507 | 0.612 | 0.549 | 0.81 | 0.689 | 0.489 | 0.807 | 0.744 | 0.665 |
| CC1(C)CCC(CN2CCN(c3ccc(C(=O)NS(=O)(=O)c4ccc(NCC5CCOCC5)c([N+](=O)[O-])c4)c(Oc4cnc5[nH]ccc5c4)c3)CC2)=C(c2ccc(Cl)cc2)C1 [Venetoclax] + C1CN(CCC1(C(=O)N[C@@H](CCO)C2=CC=C(C=C2)Cl)N)C3=NC=NC4=C3C=CN4 [Capivasertib] (first compound max 1 µM, 7x7, partner max 3 µM) | 0.897 | 0.35 | 0.193 | 0.405 | 0.683 | 0.364 | 0.167 | 0.452 | 0.285 | 0.518 | 0.149 | 0.194 | 0.187 | 0.428 | 0.62 | 0.056 | 0.518 | 0.662 | 0.179 | 0.318 |
| CC1(C)CCC(CN2CCN(c3ccc(C(=O)NS(=O)(=O)c4ccc(NCC5CCOCC5)c([N+](=O)[O-])c4)c(Oc4cnc5[nH]ccc5c4)c3)CC2)=C(c2ccc(Cl)cc2)C1 [Venetoclax] + C=CCn1c(=O)c2cnc(Nc3ccc(N4CCN(C)CC4)cc3)nc2n1-c1cccc(C(C)(C)O)n1 [AZD1775] (first compound max 1 µM, partner max 1 µM) | 0.941 | 0.404 | 0.391 | 0.496 | 0.819 | 0.833 | 0.862 | 1 | 0.294 | 0.986 | 0.349 | 0.31 | 0.169 | 0.555 | 0.672 | 0.722 | 0.72 | 0.587 | 0.833 | 0.463 |
